Assay results taken from patent US9834773B2, “Methods and means for metabolic engineering and improved product formation by micro-organisms” (Universiteit Leiden, priority 2006, dated 2017).

Key:
[1] = system: S. coelicolor M145 and BAP29 mycelia; test: Sugar uptake assay with N-[14C]acetyl-D-glucosamine into mycelia; format: cell-based, Streptomyces coelicolor; details: parent M145, cultures grown in glycerol and inducer (GlcNAc); 20 μM N-[14C]acetyl-D-glucosamine
Description: FIG. 8. DasR represses genes the N-acetylglucosamine regulon (A) Effect of deletion of dasR on the uptake of GlcNAc. Left, uptake in glycerol-grown cultures; right, uptake in cultures grown in glycerol and inducer (GlcNAc); note that expression was constitutive in BAP29. (B) Western blot analysis of HPr (top) and IIA^Crr (bottom), showing that inducibility of these PTS proteins is controlled by DasR. (C) Transcriptional analysis of crr (for IIA^Crr), nagE2 (for IIC^GlcNAc), malX2 (for IIB^GlcNAc), nagB and chiF by semi-quantitative RT-PCR. Samples were collected before and 15, 30 and 60 min after the addition of GlcNAc to exponentially growing minimal medium glycerol cultures. 16S rRNA was used as control.
Uptake assays with 20 μM N-[^14C]acetyl-D-glucosamine (6.2 mCi mmol^−1) into mycelia were performed as described (Nothaft et al., 2003).
Since many of the predicted DasR targets were involved in the fate of carbon sources (Table 2), we analyzed the effects of the dasR mutation on sugar import. […] This correlated to constitutive protein levels of the universal PTS phosphotransferases HPr and IIA^Crr (FIG. 8B), and was supported by RT-PCR of the respective genes (malX2, nagE2, crr-ptsI and ptsH; FIG. 8C) that encode the PTS permease complex (IIB^GlcNAc, IIC^GlcNAc, IIA^Crr, EI, HPr).

[2] = system: S. coelicolor M145, M510, M511, M512; test: Pigmented antibiotic (actinorhodin, undecylprodigiosin) production on MM agar plates with or without GlcNAc; format: cell-based, Streptomyces coelicolor
Description: FIG. 2. Effect of dasR on development and antibiotic production. (A) Antibiotic production by S. coelicolor M145 and its dasR mutant BAP29 on minimal medium agar plates with or without GlcNAc. […] The latter is in line with our discovery that (i) ActV4A is enhanced in the mutant (FIG. 4) and (ii) the identification of a DasR-bound dre upstream of the pathway-specific activator genes actII-ORF4 for actinorhodin production and redZ for undecylprodigiosin production. Unexpectedly, the dasR mutant grown on minimal media with GlcNAc presents the expression of a yet unchartacterized green pigment. (B) Overexpression of DasR causes developmental arrest. Left, S. coelicolor M145 with control plasmid pUWL-KS; right, the same strain with a plasmid over-expressing dasR (grown for 4 days at 30° C.); note the almost complete lack of aerial hyphae (white) in the strain over-expressing DasR; (C) Scanning electron micrographs of aerial hyphae and spores of S. coelicolor M145 and the dasR mutant BAP29. […] Bars represent 5 μm. (D) Transmission electron micrographs of spores of M145 (left) and BAP29 (right). Arrows indicate the voids between the cell wall and the membrane. FD, full detachment; ID, incomplete detachment.
E. coli DH5α, and BL21(DE3) were used for subcloning and DasR overexpression experiments. S. coelicolor M145, M510 (M145 ΔredD), M511 (M145 ΔactII-IV) and M512 (M145 ΔactII-IV ΔredD) (Floriano and Bibb, 1996) and Streptomzyces lividans 1326 were all obtained from the John Innes Centre strain collection, Streptomyces avermitilis NRRL 8165 (MA-4680), Streptonzyces hygroscopicus ATCC27438, Streptomyces limosus ATCC 19778, Streptomyces rinzosus ATCC 10970, Streptonzyces roseosporus ATCC 31568 and Streptonzyces venezuelae ATCC15439 were obtained from the ATCC strain collection and Streptomyces acrinzycini DSM 40540, Streptomyces cinnanzonensis DSM 40467, Streptomyces clavuligerus NRRL 3585, Streptomyces collinus DSM 40733 and Streptomyces griseus NRRL B2682 from the DSMZ strain collection. The dasR mutant BAP29 (ΔdasR::accC4) was created by replacing the coding region of the gene by the apramycin resistance gene cassette, using plasmid pWHM3, according to a routine procedure (Nothaft et al., 2003). The same strategy was used to create the knock-out mutants for ptsH (BAP1), crr (BAP2), ptsI (BAP3), nagE1 (BAP4), nagE2 (BAP5), and nagE1/E2 (BAP6). BAP1-3 were published previously (Nothaft et al., 2003). S. coelicolor strains were grown at 28° C. using tryptic soy broth without dextrose as complex medium (TSB, Difco) or minimal medium (van Wezel et al., 2005). E. coli cultures were grown in Luria-Bertani broth (LB) at 37° C. Phenotypic characterization of mutants was done on minimal medium agar plates with various carbon sources as indicated in the text (Kieser et al., 2000). Quantification of Act and Red was performed as described previously (Martinez-Costa et al., 1996).
Arguing from the regulatory pathway deduced from the newly extended characterization of the DasR regulon (FIG. 22), we anticipated that DasR-dependent transport and phosphorylation of GlcNAc via the PTS could be a decisive signal to trigger actinorhodin and undecylprodigiosin biosynthesis in S. coelicolor. This hypothesis was tested by plating S. coelicolor M510 (ΔredD), M511 (ΔactII-ORF4) and M512 (ΔredD, ΔactII-ORF4) on MM agar plates with or without GlcNAc. […]

CC(=O)N[C@H]1C(O)O[C@H](CO)[C@@H](O)[C@@H]1O (stereo partly drawn) [N-acetylglucosamine]
PTS-mediated uptake of GlcNAc [1]: induced
induction of the pigmented antibiotics actinorhodin and undecylprodigiosin ([2]; S. coelicolor M145, minimal medium agar plates with or without GlcNAc): required for induction
production of Act (actinorhodin) ([2]; S. coelicolor M510 (ΔredD), MM agar, GlcNAc 10 mM, five days): induced
production of Red (undecylprodigiosin) ([2]; S. coelicolor M511 (ΔactII-ORF4), MM agar, GlcNAc 10 mM, five days): induced
pigmented antibiotic production ([2]; S. coelicolor M512 (ΔredD, ΔactII-ORF4), MM agar, GlcNAc 10 mM): No pigmented antibiotic was observed
concentration at which the 'GlcNAc effect' was observed ([2]; effect of GlcNAc on antibiotic production and development): > 5 mM
